Test results published in US20140105837A1, “NOVEL ARYL C-XYLOSIDE COMPOUNDS, AND COSMETIC USE” (L'OREAL, priority 2008, published 2014).

Tests used:
Type in all cases: cell-based
[1] = test system: keratinocytes; experiment: Sulfated glycosaminoglycan synthesis on keratinocytes (35S-sulfate radioactive label incorporation); conditions: for % glycosaminoglycan synthesis relative to the control: control = 100; for Mean value (incorporated radioactivity, sulfated GAGs): n=3
Protocol: (§1) Study of the effect of C-glycoside derivatives on sulfated glycosaminoglycan synthesis on fibroblasts and on keratinocytes:
(§2) The study is carried out by measuring the incorporation of radioactive glucosamine into the matrix neosynthesized by cultures of normal human dermal fibroblasts or by keratinocytes. The incorporation of radioactive glucosamine indicates specific neosynthesis of glycosaminoglycans via an incorporation of the acetylated form of this glucosamine.
The keratinocyte cultures are performed in keratinocyte-SFM medium sold by the company Gibco, in the presence of EGF (Epidermal Growth Factor) (0.25 ng/ml), of pituitary extract (25 μg/ml) and of gentamycin (25 μg/ml).
The fibroblasts and the keratinocytes were cultured in 96-well plates. At confluence, the culture medium was replaced with suitable culture medium containing or not containing (control) the test compound or the reference, and then the cells were incubated for 48 hours. The 35S-sulfate radioactive label was added (40 μCi final concentration) and the cells were incubated for a further 24 hours. […]
(§3) The extracellular matrix glycosaminoglycans were extracted with one volume of chaotropic buffer (50 mM Tris/HCl, 4 M guanidine, 5 mM, EDTA, pH 8.0). The sulfated GAGs were purified by ion exchange chromatography: absorption of the anionic molecules onto Q-Sepharose beads under high-stringency conditions, desorption of the molecules which are not very anionic and molecules which are moderately anionic, with a 6 M urea solution containing […] NaCl, and then washing.
(§4) The radioactivity incorporated into the highly […] molecules that have remained on the support (predominantly GAGs) was measured by liquid scintillation.
(§5) The results are evaluated relative to a control consisting of cells which have not been treated with a compound of formula (I).
A positive control (CaCl2 at 1.4 mM) known to stimulate GAG synthesis is introduced into the test carried out on keratinocytes, as a positive reference.
(§6) The results are expressed as percentage variation in glycosaminoglycan synthesis relative to the control.

[2] = test system: normal human dermal fibroblasts; experiment: Sulfated glycosaminoglycan synthesis on fibroblasts (35S-sulfate radioactive label incorporation); conditions: for % glycosaminoglycan synthesis relative to the control / Mean value (incorporated radioactivity, sulfated GAGs): fibroblasts; for % glycosaminoglycan synthesis relative to the control: control = 100; for Mean value (incorporated radioactivity, sulfated GAGs): n=3; for Effectiveness for increasing sulfated GAG synthesis (in words): summary of the tests on fibroblasts and keratinocytes
Protocol: as §1, §2
The fibroblast cultures are performed according to conventional cell culture methods, namely in DMEM medium sold by the company Gibco, in the presence of L-glutamine (2 mM), of penicillin (50 IU/ml) and of 10% of fetal calf serum (Gibco).
The fibroblasts and the keratinocytes were cultured in 96-well plates. At confluence, the culture medium was replaced with suitable culture medium containing or not containing (control) the test compound or the reference, and then the cells were incubated for 48 hours. The 35S-sulfate radioactive label was added (40 μCi final concentration) and the cells were incubated for a further 24 hours. All the conditions were carried out 3 times.
as §3, §4, §5
A positive control (TGFβ at 10 ng/ml) known to stimulate GAG synthesis is introduced into the test carried out on fibroblasts, as a positive reference.
as §6

[3] = test system: keratinocytes; experiment: Sulfated glycosaminoglycan synthesis on keratinocytes (35S-sulfate radioactive label incorporation); conditions: other experimental plan, n=2
[4] = test system: normal human dermal fibroblasts; experiment: Sulfated glycosaminoglycan synthesis on fibroblasts (35S-sulfate radioactive label incorporation); conditions: other experimental plan, n=2
[5] = 0.1 mM, other experimental plan

## [Ca+2].[Cl-].[Cl-] [CaCl2, reference compound]
[1]; CaCl2 at 1.4 mM
  % glycosaminoglycan synthesis relative to the control: 117%
  Mean value (incorporated radioactivity, sulfated GAGs): 5273 cpm

## COc1cc(CCC(O)CC2OC[C@@H](O)[C@H](O)[C@H]2O)ccc1O (stereo partly drawn) [Compound 1, 1-(α,β)-D-xyopyranosyl-4-(4-hydroxy-3-methoxyphenyl)butan-2-ol]
[2]; 40 μM
  % glycosaminoglycan synthesis relative to the control: 351%
  Mean value (incorporated radioactivity, sulfated GAGs): 8130 cpm
[2]; 120 μM
  % glycosaminoglycan synthesis relative to the control: 657%
  Mean value (incorporated radioactivity, sulfated GAGs): 15318 cpm
[2]
  Effectiveness for increasing sulfated GAG synthesis (in words): highly effective
[2]; listed as example 2
  Effectiveness for increasing sulfated GAG synthesis (in words): very effective
[1]; 0.37 mM
  % glycosaminoglycan synthesis relative to the control: 707%
  Mean value (incorporated radioactivity, sulfated GAGs): 31999 cpm
[1]; 1.1 mM
  % glycosaminoglycan synthesis relative to the control: 813%
  Mean value (incorporated radioactivity, sulfated GAGs): 36795 cpm

## Oc1ccccc1CCC(O)CC1OC[C@@H](O)[C@H](O)[C@H]1O (stereo partly drawn) [Compound 8, 1-(α,β)-D-xylopyranosyl-4-(2-hydroxyphenyl)butan-2-ol]
[3]; 0.1 mM
  Mean value (incorporated radioactivity, sulfated GAGs): 40552 cpm
[3]; 1 mM
  Mean value (incorporated radioactivity, sulfated GAGs): 85456 cpm
[4]; 0.1 mM
  Mean value (incorporated radioactivity, sulfated GAGs): 2938 cpm
[4]; 1 mM
  Mean value (incorporated radioactivity, sulfated GAGs): 10371 cpm
[2]; [5]
  % glycosaminoglycan synthesis relative to the control: 117%
[2]; 1 mM, other experimental plan
  % glycosaminoglycan synthesis relative to the control: 412%
[2]
  Effectiveness for increasing sulfated GAG synthesis (in words): highly effective
[1]; [5]
  % glycosaminoglycan synthesis relative to the control: 316%
[1]; 1 mM, other experimental plan
  % glycosaminoglycan synthesis relative to the control: 665%

## OC(CCc1ccccc1)CC1OC[C@@H](O)[C@H](O)[C@H]1O (stereo partly drawn) [Compound 9, 1-(α,β)-D-xylopyranosyl-4-phenylbutan-2-ol]
[3]; 0.1 μM
  Mean value (incorporated radioactivity, sulfated GAGs): 24106 cpm
[3]; 1 μM
  Mean value (incorporated radioactivity, sulfated GAGs): 99041 cpm
[4]; 0.1 mM
  Mean value (incorporated radioactivity, sulfated GAGs): 10838 cpm
[4]; 1 mM
  Mean value (incorporated radioactivity, sulfated GAGs): 23620 cpm
[2]; [5]
  % glycosaminoglycan synthesis relative to the control: 430%
[2]; 1 mM, other experimental plan
  % glycosaminoglycan synthesis relative to the control: 938%
[2]
  Effectiveness for increasing sulfated GAG synthesis (in words): highly effective
[1]; 0.1 μM, other experimental plan
  % glycosaminoglycan synthesis relative to the control: 563%
[1]; 1 μM, other experimental plan
  % glycosaminoglycan synthesis relative to the control: 547%

## TGFβ: positive control known to stimulate GAG synthesis, used at 10 ng/ml on fibroblasts [reference compound]
[2]; TGFβ at 10 ng/ml
  % glycosaminoglycan synthesis relative to the control: 174%
  Mean value (incorporated radioactivity, sulfated GAGs): 4062 cpm
